Here are results for 13 compounds from BindingDB's records for patent US20250051327 (Exscientia AI, 2025).

This experiment deals with T1, Mucosa-associated lymphoid tissue lymphoma translocation protein 1 (Homo sapiens, UniProt Q9UDY8).
T1 sequence (Q9UDY8 whole entry): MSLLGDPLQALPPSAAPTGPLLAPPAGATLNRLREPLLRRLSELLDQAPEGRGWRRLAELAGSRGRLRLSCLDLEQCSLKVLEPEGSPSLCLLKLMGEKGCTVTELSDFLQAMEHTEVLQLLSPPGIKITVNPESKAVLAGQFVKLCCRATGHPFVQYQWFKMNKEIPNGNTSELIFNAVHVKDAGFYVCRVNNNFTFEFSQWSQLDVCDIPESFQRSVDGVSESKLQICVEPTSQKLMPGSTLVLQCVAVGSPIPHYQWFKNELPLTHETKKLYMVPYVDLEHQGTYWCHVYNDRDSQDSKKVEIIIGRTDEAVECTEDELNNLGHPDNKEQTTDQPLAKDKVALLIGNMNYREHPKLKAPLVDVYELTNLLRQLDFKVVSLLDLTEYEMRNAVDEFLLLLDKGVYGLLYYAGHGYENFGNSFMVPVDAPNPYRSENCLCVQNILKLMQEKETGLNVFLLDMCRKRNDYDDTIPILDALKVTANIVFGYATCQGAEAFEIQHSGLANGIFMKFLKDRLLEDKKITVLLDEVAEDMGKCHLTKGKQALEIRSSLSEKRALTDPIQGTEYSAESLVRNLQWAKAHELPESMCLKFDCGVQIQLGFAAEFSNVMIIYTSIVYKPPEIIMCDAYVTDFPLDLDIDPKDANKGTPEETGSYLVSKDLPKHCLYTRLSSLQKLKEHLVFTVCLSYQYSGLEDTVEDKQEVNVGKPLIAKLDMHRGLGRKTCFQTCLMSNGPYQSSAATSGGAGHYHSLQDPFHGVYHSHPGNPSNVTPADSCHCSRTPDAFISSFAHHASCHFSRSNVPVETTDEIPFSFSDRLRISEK
Put plainly: MALT-1 Inhibition Assay. How it is done: MALT-1 paracaspase activity was measured using the fluorogenic substrate Ac-LRSR-Rh110-DP (purchased from Biosantan GmbH). Proteolytic cleavage of the peptide—rhodamine conjugate results in an increase of rhodamine fluorescence which is inhibited by test compounds. Test compounds were diluted in DMSO in a series of 10 semi-log step doses, 15 nL of each compound dose were dispensed in 384 well polypropylene plates (HiBase non-binding, Greiner Bio-One cat #784900). All other assay components were diluted to appropriate working concentrations in assay buffer composed of: 200 mM Tris-HCl (pH 7.5; Sigma-Aldrich cat #T2663-1L), 0.1 mM EGTA (Sigma-Aldrich cat #E3889-10G), 0.05% CHAPS—Sigma-Aldrich cat #C9426-1G), 1 mM TCEP (Sigma-Aldrich cat #646547-10×1 mL), 0.8 M sodium citrate (Sigma-Aldrich cat #S1804-500G). Recombinant human MALT-1 (amino acids 340-824, accession NP_006776.1) was added to compound doses and equilibrated for 40 minutes at rt. The reaction was initiated by addition of substrate. Final concentrations of MALT-1 and substrate were 3 nM and 10 μM respectively. Reactions were incubated in the dark for 60 minutes at 25° C. Fluorescence was measured in a PHERAstar FSX plate reader (BMG LABTECH) with optical setup for excitation at 485 nm and emission at 520 nm, focal height of 11.8 mm, 20 flashes, gain 300. Percent inhibition values were calculated from relative fluorescence units at different doses and fitted to a 4-parameter logistic curve to determine IC50 values.
`COC[C@@H]1CCN(c2ccc([C@H](N(C)C(=O)C3CCS(=O)(=O)CC3)C(F)(F)F)cc2)c2cnc3cc(Cl)nn3c21` [US20250051327, Reference CPD0073503] yielded an IC50 of 115 nM. In other words, the sub-micromolar range.
Compound `O=C(CC1CS(=O)(=O)C1)N[C@@H](c1ccc(N2CCCc3c2cnc2cc(Cl)nn32)cc1)C(F)(F)F` [US20250051327, Reference CPD0073535] had an IC50 of 403 nM.
`CN(C(=O)C1CCS(=O)(=O)CC1)[C@@H](c1ccc(N2CC[C@@]3(CCOC3)c3c2cnc2cc(Cl)nn32)cc1)C(F)(F)F` [US20250051327, Reference CPD0073762] showed an IC50 of 53 nM.
Compound `CN(C(=O)C1CCS(=O)(=O)CC1)[C@@H](c1ccc(N2CC[C@]3(CCOC3)c3c2cnc2cc(Cl)nn32)cc1)C(F)(F)F` [US20250051327, Reference CPD0073763] registered an IC50 of 57 nM. This IC50 and that of the compound before are within 1.5-fold of each other.
The value for `CN(C(=O)[C@@H]1CS(=O)(=O)CC12COC2)[C@@H](c1ccc(N2CCCc3c2cnc2cc(Cl)nn32)cc1)C(F)(F)F` [US20250051327, Reference CPD0073974] was 155 nM; that for `CN(C(=O)[C@H]1CS(=O)(=O)CC12COC2)[C@@H](c1ccc(N2CCCc3c2cnc2cc(Cl)nn32)cc1)C(F)(F)F` [US20250051327, Reference CPD0073975] was 112 nM; that for `COc1ccc2ncc(Nc3ccc([C@H](N(C)C(=O)C4CCS(=O)(=O)CC4)C(F)(F)F)cc3)c([C@H]3CCOC3)c2n1` [US20250051327, Reference CPD0074039] was 138 nM.
`COc1ccc2ncc(Nc3ccc([C@H](N(C)C(=O)C4CCS(=O)(=O)CC4)C(F)(F)F)cc3)c([C@@H]3CCOC3)c2n1` [US20250051327, Reference CPD0074040] registered an IC50 of 83 nM.
In turn, `COc1ccc2ncc(Nc3ccc([C@H](N(C)C(=O)C4CCS(=O)(=O)CC4)C(F)(F)F)cc3)c(C3(OC)COC3)c2n1` [US20250051327, Reference CPD0076414] registered an IC50 of 124 nM.
Consider `CO[C@@H](C)c1c(Nc2ccc([C@H](N(C)C(=O)[C@@H]3CCC(=O)N3)C(F)(F)F)cc2)cnn2cc(Cl)nc12` [US20250051327, Reference CPD0082470], for which the IC50 came to 45 nM. Compared with the last compound, the IC50 is about 2.8-fold lower.
The compound `COc1ccc2ncc(Nc3ccc([C@H](N(C)C(=O)[C@@H]4CNC(=O)C4)C(F)(F)F)cc3)c([C@@H]3CCOC3)c2n1` [US20250051327, Reference CPD0084142] yielded a 50% inhibitory concentration (IC50) of 41 nM.
In turn, `CO[C@@H](C)c1c(Nc2ccc([C@H](N(C)C(=O)CN3CCN(C)CC3)C(F)(F)F)cc2)cnn2cc(Cl)nc12` [US20250051327, Reference CPD0084933] came in with an IC50 of 137 nM. This IC50 lies about 3.3-fold higher than the previous one.
Next, `CO[C@@H](C)c1c(Nc2ccc([C@H](N(C)C(=O)C3CN(S(C)(=O)=O)C3)C(F)(F)F)cc2)cnn2cc(Cl)nc12` [US20250051327, Reference CPD0084936]: 65 nM.
